Paper PMC6982040, “A Purified Aspartic Protease from Akkermansia Muciniphila Plays an Important Role in Degrading Muc2” (International Journal of Molecular Sciences, 2019)
Square brackets hold non-standard residues; d marks the D form. Peptide text beside a SMILES is read from it. * marks the point of attachment. Sta = CC(C)C[C@H](N)[C@@H](O)CC(=O)O; Isovaleryl = CC(C)CC(=O)*

Target: T1, Amuc_1434* (Akkermansia muciniphila, UniProt B2UKY3)
T1 construct: recombinant, 6xHis-tag (N-terminal as printed; Pet25b-His vector), E. coli Rosetta (DE3), Ni-Sepharose; ~50 kDa on SDS-PAGE; b10 says amplified from genomic DNA, b49 says gene synthesized
T1 sequence (B2UKY3 22-326): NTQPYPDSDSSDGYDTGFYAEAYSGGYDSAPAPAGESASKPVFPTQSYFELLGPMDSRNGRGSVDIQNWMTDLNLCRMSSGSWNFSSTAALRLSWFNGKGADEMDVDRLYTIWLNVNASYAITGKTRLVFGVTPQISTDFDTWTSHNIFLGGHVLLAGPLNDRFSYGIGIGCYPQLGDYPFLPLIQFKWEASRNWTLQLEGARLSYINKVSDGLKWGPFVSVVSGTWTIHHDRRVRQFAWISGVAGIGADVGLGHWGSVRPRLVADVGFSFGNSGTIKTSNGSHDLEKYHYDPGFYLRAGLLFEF
Test: hemoglobin hydrolysis, UV absorbance at […] nm
Type: biochemical
Settings: read-out: Relative Activity (%)

| activity at 10 µM | activity at 20 µM | Structure (SMILES) |
| --- | --- | --- |
| 88.5 ± 4.7% | – | CC(C)C[C@H](NC(=O)[C@@H]1O[C@H]1C(=O)O)C(=O)NCCCCN=C(N)N [E-64] |
| – | 40.1 ± 6.7% | CC(C)CC(=O)N[C@H](C(=O)N[C@H](C(=O)N[C@@H](CC(C)C)[C@@H](O)CC(=O)N[C@@H](C)C(=O)N[C@@H](CC(C)C)[C@@H](O)CC(=O)O)C(C)C)C(C)C [pepstatin A] (Isovaleryl-VV[Sta]A[Sta]-OH) |
